Assay results as given in patent US4767865A, “3'-pyridinylalkylinden- and 3'-pyridinylalkylindol-2-carboxylic acids and analogs” (The Upjohn Company, priority 1987, dated 1988).
Counter-ions that a name gives are not always drawn. Like-named read-outs stand apart in the source and are kept apart here.

Assays:
TXA2 synthetase = target: T1, TXA2 synthetase (Homo sapiens, UniProt P24557); assay: TXA2 synthetase inhibition: TXA2 produced by mixing PGH2 and HPM, measured by response of the rabbit aorta; assay type: biochemical; conditions: test compound added to HPM 5 minutes before mixing with PGH2, approximate
T1 construct: from tissue; host or cells: HPM (read as human platelet microsomes)
T1 sequence (P24557 1-533): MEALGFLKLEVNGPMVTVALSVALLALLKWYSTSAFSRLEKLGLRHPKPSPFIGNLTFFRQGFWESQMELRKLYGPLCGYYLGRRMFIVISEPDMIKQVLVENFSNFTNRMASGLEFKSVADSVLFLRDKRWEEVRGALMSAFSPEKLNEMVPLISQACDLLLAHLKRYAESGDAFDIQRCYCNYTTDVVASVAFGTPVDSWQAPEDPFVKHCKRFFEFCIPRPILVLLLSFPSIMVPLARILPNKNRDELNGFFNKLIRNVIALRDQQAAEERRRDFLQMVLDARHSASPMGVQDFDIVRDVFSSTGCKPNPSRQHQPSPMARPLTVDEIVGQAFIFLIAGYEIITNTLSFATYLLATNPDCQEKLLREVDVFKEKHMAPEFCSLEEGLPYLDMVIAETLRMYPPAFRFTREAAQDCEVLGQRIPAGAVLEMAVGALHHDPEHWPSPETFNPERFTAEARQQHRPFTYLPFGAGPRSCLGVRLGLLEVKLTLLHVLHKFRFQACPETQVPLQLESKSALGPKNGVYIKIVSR
Procedure: Potential inhibitors were tested by comparing the response of the rabbit aorta to the amount of TXA2 produced by mixing PGH2 and HPM without the test compound in the reaction medium and then the amount of TXA2 produced when the test compound was added to the HPM 5 minutes before the HPM was mixed with PGH2. […] For a discussion of TXA2 synthetase inhibition testing see, e.g., R. Gorman, supra.

thromboxane synthetase = assay: Inhibition of Thromboxane A2 biosynthesis in platelet rich plasma; assay type: cell-based; conditions: at 1 μg/ml
Procedure: In this system, 6-(3-pyridylmethyl)indene-2-carboxylic acid inhibited thromboxane synthetase 95% as compared to control at 1 μg/ml.

In the case of `O=C(O)c1cc2cc(NCc3cccnc3)ccc2[nH]1` [Sodium Salt], the IC50 (TXA2 synthetase; read-out: approximate ED50 (lower bound)) is reported as greater than 346 nM and the IC50 (TXA2 synthetase; read-out: approximate ED50 (upper bound)) is reported as less than 3460 nM.

With `O=C(O)C1=Cc2ccc(Cc3cccnc3)cc2C1` [6-(3-Pyridylmethyl)indene-2-carboxylic Acid] the “inhibited thromboxane synthetase as compared to control” value (thromboxane synthetase) was 95%.
